Measurements reported in PubChem BioAssay (NCI).
Several values for one entry are separate records, joined by “and”; a condition that tells them apart may be missing. Equal values may be shown once.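 Dose response: 5 concentrations. Exposure: 48 h. Format: 96-well plates. Endpoint: linear interpolation; highest concentration if not reached. GI50 is the concentration that inhibits growth by half. At the TGI there is no net growth.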

Legend:
Experiment in all cases: NCI tumour cell line growth inhibition, 48 h
A498 renal = test system: A498 renal
A549 NSCLC = test system: A549 NSCLC
ACHN renal = test system: ACHN renal
DU-145 prostate = test system: DU-145 prostate
K-562 leukemia = test system: K-562 leukemia
NCI-H460 lung = test system: NCI-H460 lung
PC-3 prostate = test system: PC-3 prostate
SF-295 CNS = test system: SF-295 CNS
SF-539 CNS = test system: SF-539 CNS
SR leukemia = test system: SR leukemia

| Compound | GI50 (A498 renal) | TGI (A498 renal) | GI50 (A549 NSCLC) | TGI (A549 NSCLC) | GI50 (ACHN renal) | TGI (ACHN renal) | GI50 (DU-145 prostate) | TGI (DU-145 prostate) | GI50 (K-562 leukemia) | TGI (K-562 leukemia) | GI50 (NCI-H460 lung) | TGI (NCI-H460 lung) | GI50 (PC-3 prostate) | TGI (PC-3 prostate) | GI50 (SF-295 CNS) | TGI (SF-295 CNS) | GI50 (SF-539 CNS) | TGI (SF-539 CNS) | GI50 (SR leukemia) | TGI (SR leukemia) |
| --- | --- | --- | --- | --- | --- | --- | --- | --- | --- | --- | --- | --- | --- | --- | --- | --- | --- | --- | --- | --- |
| O=c1cc(-c2ccc(Cl)cc2)[nH]c2ccccc12 | 51.6 µM | > 100 µM | > 100 µM | > 100 µM | 57.8 µM | > 100 µM | 66.4 µM | > 100 µM | 7.03 µM | > 100 µM | 39.6 µM | > 100 µM | 35.2 µM | > 100 µM | 41.2 µM | > 100 µM | 52.8 µM | > 100 µM | 4.76 µM | > 100 µM |
| C[C@H]1CCC/C=C/C2CC(OC(=O)CN(C)C)CC2C(OC(=O)CN(C)C)/C=C/C(=O)O1 (some centres not stated) | 0.0508 µM | 0.282 µM | 0.68 µM | > 100 µM | 0.398 µM | 11.9 µM | 0.615 µM | > 100 µM | 3.29 µM | > 100 µM | 1.09 µM | 31.2 µM | 0.261 µM | > 100 µM | 1.11 µM | 37.2 µM | 0.531 µM | > 100 µM | 0.38 µM | 10.1 µM |
| C[C@@H](Nc1nc(N[C@H](C)C(F)(F)F)nc(-c2cccc(Cl)n2)n1)C(F)(F)F | 29.9 µM | 99.7 µM | 50.3 µM | > 100 µM | 36.4 µM | > 100 µM | 41.6 µM | > 100 µM | > 100 µM | > 100 µM | 36.1 µM | > 100 µM | 45.4 µM | > 100 µM | 35.2 µM | > 100 µM | 26.5 µM | 68.6 µM | > 100 µM | > 100 µM |
| OCC1NC(COC2OC(CO)C(O)C(O)C2O)C(O)C(O)C1O (configuration not stated) | – | > 100 µM | – | > 100 µM | – | > 100 µM | – | > 100 µM | – | > 100 µM | – | > 100 µM | – | > 100 µM | – | > 100 µM | – | > 100 µM | – | > 100 µM |
| COc1cc2c(Oc3ccc(NC(=O)C4(C(=O)Nc5ccc(F)cc5)CC4)cc3F)ccnc2cc1OCCCN1CCOCC1 | < 0.0462 µM and 0.383 µM | 1.24 µM and 1.7 µM | 0.556 µM and 0.625 µM | 1.88 µM and 2.2 µM | 0.558 µM and 0.702 µM | 2.33 µM and 3.27 µM | 1.52 µM and 1.98 µM | 4.39 µM and > 10 µM | 0.102 µM and 0.15 µM | 1.78 µM and 1.33 µM | 0.521 µM and 0.575 µM | 2.05 µM and 2.51 µM | 1.9 µM and 1.23 µM | 14.5 µM and > 10 µM | 0.0519 µM and 0.0663 µM | 1.26 µM and 1.49 µM | 0.288 µM and 0.456 µM | 1.65 µM and 1.67 µM | 0.932 µM and 0.583 µM | 3.45 µM and 2.78 µM |
| Cc1cc(=O)oc2c(C3=NN(C=O)C(c4ccccc4)C3)c(O)ccc12 (configuration not stated) | – | > 92.9 µM | – | > 32.8 µM | – | > 42.8 µM | – | > 100 µM | – | > 100 µM | – | > 100 µM | – | > 100 µM | – | > 31.1 µM | – | > 94.4 µM | – | > 100 µM |
| CC(=O)N[C@H](C)[C@@H](O)[C@@H](C)[C@@H]1OC(=O)/C=C/C=C(C)\C=C\[C@]2(C)C[C@@H](NS(C)(=O)=O)C=C[C@@H]2/C=C(C)/C=C/[C@H]1C | 0.0068 µM and 0.0121 µM | – | 0.0159 µM and 0.00435 µM | > 43.5 µM | 0.0125 µM | > 43.5 µM | – | > 43.5 µM | 0.00684 µM and 0.0218 µM | > 43.5 µM | 0.00812 µM and 0.0174 µM | > 43.5 µM | 0.00714 µM and 0.0129 µM | > 43.5 µM | 0.00244 µM and 0.00435 µM | – | 0.00357 µM and 0.00623 µM | > 43.5 µM | 0.00606 µM and 0.00719 µM | > 43.5 µM |
| Nc1nc(N)c2c(n1)NC(c1sc(Cl)nc1Cl)CC(c1ccccc1)=N2 (configuration not stated) | 1.28 µM | 8.92 µM | 5.02 µM | 19.4 µM | 4.56 µM | 16.8 µM | 11.2 µM | 24.2 µM | 1.68 µM | 20.9 µM | 4.05 µM | 14.6 µM | 5.89 µM | 24 µM | 3.06 µM | 13.3 µM | 2.69 µM | 9.97 µM | 2.25 µM | 8.86 µM |
| COc1ccccc1-n1cnc(N)c1C(=O)c1cc(OC)c(OC)c(OC)c1 | 2.79 µM | 9.69 µM | 4.42 µM | > 100 µM | 5.19 µM | > 100 µM | 6.65 µM | > 100 µM | 2.12 µM | > 100 µM | 3.47 µM | > 100 µM | 3.51 µM | > 100 µM | 2.73 µM | > 100 µM | 2.42 µM | 9.12 µM | 1.92 µM | > 100 µM |
| CC/C=C\C[C@H]1C/C=C2/C(=O)C=C[C@H]2C/C=C\CCCC(=O)O1 | 7.21 µM | 14.4 µM | 2.66 µM | 10.3 µM | 1.39 µM | 3.97 µM | 1.9 µM | 7.39 µM | 1.89 µM | > 50 µM | 2.92 µM | 14.5 µM | 3.13 µM | 12.1 µM | 2.62 µM | 9.33 µM | 2.07 µM | 8.16 µM | 1.34 µM | 21.8 µM |
| COc1ccc(-n2cc(-c3cc(OC)c(OC)c(OC)c3)nc2SCc2ccc(Cl)cc2)cc1OC | 89 µM | > 100 µM | 53.2 µM | > 100 µM | > 100 µM | > 100 µM | > 100 µM | > 100 µM | 87.5 µM | > 100 µM | > 100 µM | > 100 µM | 35.3 µM | > 100 µM | > 100 µM | > 100 µM | > 100 µM | > 100 µM | > 100 µM | > 100 µM |
